According to patent US10899628B2, “Cerium sulfate chelated sulfur dioxide, a preparation method and a use thereof” (South China Normal University, priority 2017, dated 2021):
Where two headings read alike, the source gives them in different places.

Tests used:
[1] = background statement, cited from earlier work
[2] = solubility in water, aqueous DMSO and DMSO; assay type: physicochemical
[3] = thermogravimetric analysis (TGA); assay type: physicochemical
Experimental: It is known from the TGA curve that the weight loss between 30.5° C. and 150° C. corresponds to the content of crystal water in the chelated molecules.

| Compound | solubility in a solution of a certain acidity ([1]; acidic solution) | solubility in water ([1]; water) | solubility in DMSO ([2]; DMSO) | solubility in about 4% aqueous solution of DMSO ([2]; about 4% aqueous solution of dimethyl sulfoxide) | solubility in water ([2]; water, standing for a period of time or heating under water bath of about 45 to 50° C.) | weight loss (crystal water) ([3]; between 30.5° C. and 150° C.) [%] | product remained in the final residue (thermal stability) ([3]; final residue) [%] |
| --- | --- | --- | --- | --- | --- | --- | --- |
| O=S(=O)([O-])[O-].O=S(=O)([O-])[O-].[Ce+4] [Anhydrous cerium sulfate, anhydrous cerium sulfate] | highly soluble | not highly soluble | – | – | – | – | – |
| cerium sulfate chelated sulfur dioxide | – | – | insoluble | soluble | forms an emulsion with water, and can dissolve after standing for a period of time or heating | 11 | 72.51 |
